In patent US6613920B1, “Vitamin D derivatives with carbo- or heterocyclic substituents at C-25, process for their production, intermediate products and use for the production of pharmaceutical agents” (Schering Aktiengesellschaft, priority 1996, dated 2003):

How the values were obtained:
[1] = target: T1, calcitriol receptor (specific receptor protein from the intestines of juvenile pigs) (Sus scrofa, UniProt A3RGC1); assay: calcitriol-receptor test (competition with 3H-calcitriol); format: binding, pig; details: KF = concentration of test substance / concentration of calcitriol at 50% competition
T1 construct: a specific receptor protein from the intestines of juvenile pigs; from tissue; host or cells: intestines of juvenile pigs
T1 sequence (A3RGC1 1-427): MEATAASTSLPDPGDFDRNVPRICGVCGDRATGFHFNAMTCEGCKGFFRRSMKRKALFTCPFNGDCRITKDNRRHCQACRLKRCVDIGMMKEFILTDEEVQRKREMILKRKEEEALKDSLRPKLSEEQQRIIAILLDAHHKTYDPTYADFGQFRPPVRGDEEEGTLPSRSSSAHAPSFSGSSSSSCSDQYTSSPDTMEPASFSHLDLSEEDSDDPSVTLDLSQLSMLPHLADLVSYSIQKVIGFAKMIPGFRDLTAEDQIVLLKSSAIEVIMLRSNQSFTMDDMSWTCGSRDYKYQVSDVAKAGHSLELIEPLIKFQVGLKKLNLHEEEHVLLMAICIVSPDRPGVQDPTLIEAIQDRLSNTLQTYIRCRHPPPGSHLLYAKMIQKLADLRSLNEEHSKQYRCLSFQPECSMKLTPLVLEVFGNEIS
Description: It is carried out using a specific receptor protein from the intestines of juvenile pigs.
250 μl of a charcoal-dextran suspension is fed to each test tube and incubated at 4° C. for 20 minutes. Then, the samples are centrifuged at 10,000×g for 5 minutes at 4° C. The supernatant is decanted and measured in a β-counter after 1 hour of equilibration in Picofluor 15™.
It is defined as a quotient of the concentrations of the respective test substance and the reference substance, which are necessary for 50% competition:
KF=Concentration of test substance at 50% competition/Concentration of reference substance at 50% competition

HL 60 cells [2] = assay: differentiation induction of HL 60 cells to macrophages (NBT reduction); format: cell-based, human; details: DR = test substance dose / calcitriol dose for comparable semi-maximum actions; 96 hours incubation
Description: The differentiation-stimulating action of calcitriol analogues is also detected quantitatively.
It is known in the literature [Mangelsdorf, D. J. et al., J. Cell.
HL 60 cells are cultivated in tissue culture medium (RPMI 10% fetal calf serum) at 37° C. in an atmosphere of 5% CO2 in air.
For substance testing, the cells are centrifuged off, and 2.0×10^5 cells/ml in phenol red-free tissue culture medium is taken up. The test substances are dissolved in ethanol and diluted with tissue culture medium without phenol red to the desired concentration. The dilution stages are mixed with the cell suspension at a ratio of 1:10, and 100 μl each of this cell suspension that is mixed with substance is pipetted into an indentation of a 96-hole plate. For control, a cell suspension is mixed analogously with the solvent.
After incubation for 96 hours at 37° C. in 5% CO2 in air, 100 μl of an NBT-TPA solution (nitro blue tetrazolium (NBT), final concentration in the batch of 1 mg/ml, tetradecanoyl phorbolmyristate-13-acetate (TPA), final concentration in the batch of 2×10^−7 mol/l) is pipetted into each indentation of the 96-hole plate in the cell suspension.
By incubation for 2 hours at 37° C. and 5% CO2 in air, NBT is reduced to insoluble formazan because of the intracellular oxygen radical release, stimulated by TPA, in the cells that are differentiated to macrophages.
To complete the reaction, the indentations of the 96-hole plate are suctioned off, and the cells are affixed to the bottom of the plate by adding methanol and dried after affixing. To dissolve the intracellular formazan crystals that are formed, 100 μl of potassium hydroxide (2 mol/l) and 100 μl of dimethyl sulfoxide are pipetted into each indentation and ultrasonically treated for 1 minute. The concentration of formazan is measured by spectrophotometry at 650 nm.
As a yardstick for the differentiation induction of HL 60 cells to macrophages, the concentration of formed formazan applies.

HL 60 cells [3] = assay: antagonism of the action of calcitriol in HL 60 cells; format: cell-based, human
From the text: In the series of 25-oxazole derivatives, the compounds with increasing chain length on the heterocycle in the case of constantly good receptor affinity show considerably weaker differentiation-stimulating agonistic activity in HL 60 cells (Tab. 1). […] This property is continued with increasing chain length in radical Z of general formula I.

[4] = acute hypercalcemic action in rats (serum calcium); format: in vivo; details: one-time subcutaneous administration, DR = test substance dose / calcitriol dose for comparable actions
Description: To determine the acute hypercalcemic action of various calcitriol derivatives, the test that is described below is carried out:
During the testing time, the rats are kept in special cages to determine the excretion of water and mineral substances. Urine is collected in 2 fractions (0-16 hours and 16-22 hours). An oral dose of calcium (0.1 mmol of calcium in 6.5% alpha-hydroxypropylcellulose, 5 ml/animal) replaces at 1600 hours the calcium intake that is lacking by food deprivation. At the end of the test, the animals are killed by decapitation and exsanguinated to determine the serum-calcium values. For the primary screen test in vivo, an individual standard dose (200 μg/kg) is tested. For selected substances, the result is supported by establishing a dose-effect relation.
A hypercalcemic action is shown in serum-calcium level values that are higher than in the control.
The significance of differences between substance groups and controls and between test substance and reference substance are supported with suitable statistical processes.

Structure (SMILES) | Competition Factor KF for Receptor Bonding [1] | Dose Ratio for Differentiation Induction in HL 60 Cells (HL 60 cells [2]) | antagonism of the action of calcitriol in HL 60 cells (HL 60 cells [3]) | dose ratio DR for hypercalcemia [4]
C=C1C(=CC=C2CCCC3(C)C2CCC3C(C)C=CC(O)C2(c3ncc(C)o3)CC2)CC(O)CC1O [Compound 15, (5Z,7E,22E)-(1S,3R,24R)-25-(5-methyloxazol-2-yl)-26,27-cyclo-9,10-secocholesta-5,7,10(19),22-tetraene-1,3,24-triol] | 2 | 3.4 | – | –
C=C1C(=CC=C2CCCC3(C)C2CCC3C(C)C=CC(O)C2(c3ncc(CCCCC)o3)CC2)CC(O)CC1O [Compound 17, (5Z,7E,22E)-(1S,3R,24R)-25-(5-pentyloxazol-2-yl)-26,27-cyclo-9,10-secocholesta-5,7,10(19),22-tetraene-1,3,24-triol] | 4 | >100 | antagonize the action of calcitriol | –
C=C1/C(=C\C=C2/CCC[C@]3(C)[C@@H]([C@H](C)/C=C/[C@@H](O)C4(c5ncc(CC)o5)CC4)CC[C@@H]23)C[C@@H](O)C[C@@H]1O [Compound 16, (5Z,7E,22E)-(1S,3R,24R)-25-(5-ethyloxazol-2-yl)-26,27-cyclo-9,10-secocholesta-5,7,10(19),22-tetraene-1,3,24-triol] | 3 | 1.3 | antagonize the action of calcitriol | –
C=C1/C(=C\C=C2/CCC[C@]3(C)[C@@H]([C@H](C)/C=C/[C@@H](O)C4(c5ncc(CCC)o5)CC4)CC[C@@H]23)C[C@@H](O)C[C@@H]1O [Compound 14, (5Z,7E,22E)-(1S,3R,24R)-25-(5-Propyloxazol-2-yl)-26,27-cyclo-9,10-secocholesta-5,7,10(19),22-tetraene-1,3,24-triol] | 2 | 1.9 | – | 300
